Test results reported in PMC12019475 (ACS Omega, 2025).

System: CcrM from Moraxella lincolnii
Assay: radiochemical DNA methylation assay
Format: biochemical, Lwoffella lincolnii
Settings: read-out: M. lincolnii IC50; DNA and AdoMet as substrates

NSC317003 [NSC 2]
IC50: 45.8 ± 3.2 µM
